Counter-ions that a name gives are not always drawn.
Key:
[1] = biological target: T1, Recombinant human IKKβ (residues 1-737) (Homo sapiens, UniProt O14920); assay: IKK2 assay (TR-FRET); assay type: biochemical; details: ATP 1 μM final, read-out: pIC50 against IKK2 (converted)
T1 construct: Recombinant human IKKβ (residues 1-737); GST (C); made in house
T1 sequence (O14920 1-737): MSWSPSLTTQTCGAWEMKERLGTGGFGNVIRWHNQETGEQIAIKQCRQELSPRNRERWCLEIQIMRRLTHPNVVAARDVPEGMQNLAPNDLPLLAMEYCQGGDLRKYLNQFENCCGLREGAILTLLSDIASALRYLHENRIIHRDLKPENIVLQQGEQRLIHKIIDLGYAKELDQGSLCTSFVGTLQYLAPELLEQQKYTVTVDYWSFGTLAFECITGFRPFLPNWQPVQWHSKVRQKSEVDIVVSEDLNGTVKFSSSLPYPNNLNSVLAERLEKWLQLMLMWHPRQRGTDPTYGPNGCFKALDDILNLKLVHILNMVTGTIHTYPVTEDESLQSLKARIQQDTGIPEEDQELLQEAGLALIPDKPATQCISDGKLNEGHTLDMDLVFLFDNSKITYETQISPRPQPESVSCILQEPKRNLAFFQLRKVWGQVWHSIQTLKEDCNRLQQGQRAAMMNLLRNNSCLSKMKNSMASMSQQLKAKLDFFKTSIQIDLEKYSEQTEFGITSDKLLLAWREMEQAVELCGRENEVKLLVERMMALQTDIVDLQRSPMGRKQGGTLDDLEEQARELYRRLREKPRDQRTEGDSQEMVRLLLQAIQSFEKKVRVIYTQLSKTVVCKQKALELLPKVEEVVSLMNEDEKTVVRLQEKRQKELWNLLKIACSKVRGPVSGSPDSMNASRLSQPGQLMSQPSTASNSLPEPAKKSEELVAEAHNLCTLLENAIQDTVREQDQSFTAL
How it was run: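 TR-FRET readout (665 nm over 620 nm Eu reference) of GST-IB Ser32/36 phosphorylation after 60 min detection. Reaction: 1 μM ATP, 25 nM substrate, 0.5-5 nM GST-fused IKKβ 1-737 from baculovirus, pH 7.4 HEPES buffer, 1.7% DMSO, 15 min room temperature, EDTA-terminated.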

[2] = tested on: human monocyte stimulated cytokine production (TNF-α); assay: Monocyte assay (LPS-stimulated TNF-α production); assay type: cell-based; details: 24 h, 200 ng/mL LPS, TNF-α by ELISA
How it was run: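 TNF-α release was measured by ELISA after 24 hrs at 37 C. Cells were stimulated with 200 ng/mL E. coli LPS, with compound added 30 minutes beforehand (0.1% DMSO vehicle). Cells were Ficoll/MACS-isolated CD14+ human monocytes adhered at 1×10^6 cells/mL, and viability was checked by trypan blue.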

| Compound | IC50 [1] [µM] | IC50 [2] [µM] |
| --- | --- | --- |
| CCS(=O)(=O)N1CCC(c2c[nH]c3c(C(N)=O)cc(-c4ccc(N5CCCC5)nc4)cc23)CC1 [Example 224, 3-[1-(ethylsulfonyl)-4-piperidinyl]-5-[6-(1-pyrrolidinyl)-3-pyridinyl]-1H-indole-7-carboxamide trifluoroacetate] | ≤ 10 | > 1 |
| CCS(=O)(=O)N1CCC(c2c[nH]c3c(C(N)=O)cc(-c4csc(CN5CCCC5)c4)cc23)CC1 [Example 232, 3-[1-(ethylsulfonyl)-4-piperidinyl]-5-[5-(1-pyrrolidinylmethyl)-3-thienyl]-1H-indole-7-carboxamide trifluoroacetate] | ≤ 10 | ≤ 1.5 |
| CCNCc1cc(-c2cc(C(N)=O)c3[nH]cc(C4CCN(S(=O)(=O)CC)CC4)c3c2)cs1 [Example 233, 5-{5-[(ethylamino)methyl]-3-thienyl}-3-[1-(ethylsulfonyl)-4-piperidinyl]-1H-indole-7-carboxamide trifluoroacetate] | ≤ 10 | ≤ 1.5 |
| CCS(=O)(=O)N1CCC(c2c[nH]c3c(C(N)=O)cc(-c4csc(CN[C@H](C)CO)c4)cc23)CC1 [Example 234, 3-[1-(ethylsulfonyl)-4-piperidinyl]-5-[5-({[(1R)-2-hydroxy-1-methylethyl]amino}methyl)-3-thienyl]-1H-indole-7-carboxamide trifluoroacetate (salt)] | ≤ 10 | ≤ 1.5 |
| CCS(=O)(=O)N1CCC(c2c[nH]c3c(C(N)=O)cc(-c4csc(CN5CCCCC5)c4)cc23)CC1 [Example 235, 3-[1-(ethylsulfonyl)-4-piperidinyl]-5-[5-(1-piperidinylmethyl)-3-thienyl]-1H-indole-7-carboxamide trifluoroacetate] | ≤ 10 | ≤ 1.5 |
| CCS(=O)(=O)N1CCC(c2c[nH]c3c(C(N)=O)cc(-c4csc(CN5CCOCC5)c4)cc23)CC1 [Example 236, 3-[1-(ethylsulfonyl)-4-piperidinyl]-5-[5-(4-morpholinylmethyl)-3-thienyl]-1H-indole-7-carboxamide trifluoroacetate] | ≤ 10 | ≤ 1.5 |
| CCS(=O)(=O)N1CCC(c2c[nH]c3c(C(N)=O)cc(-c4coc(CNC)c4)cc23)CC1 [Example 237, 3-[1-(ethylsulfonyl)-4-piperidinyl]-5-{5-[(methylamino)methyl]-3-furanyl}-1H-indole-7-carboxamide trifluoroacetate] | ≤ 10 | ≤ 1.5 |
| CCS(=O)(=O)N1CCC(c2c[nH]c3c(C(N)=O)cc(-c4csc(C(C)N5CCCC5)c4)cc23)CC1 (stereo not drawn) [Example 238, 3-[1-(ethylsulfonyl)-4-piperidinyl]-5-{5-[1-(1-pyrrolidinyl)ethyl]-3-thienyl}-1H-indole-7-carboxamide trifluoroacetate] | ≤ 10 | ≤ 1.5 |
| CCS(=O)(=O)N1CCC(c2c[nH]c3c(C(N)=O)cc(-c4ccc(CN5CCCC5)s4)cc23)CC1 [Example 239, 3-[1-(ethylsulfonyl)-4-piperidinyl]-5-[5-(1-pyrrolidinylmethyl)-2-thienyl]-1H-indole-7-carboxamide trifluoroacetate] | ≤ 10 | ≤ 1.5 |
| CCS(=O)(=O)N1CCC(c2c[nH]c3c(C(N)=O)cc(-c4ccc(CN(C)C)s4)cc23)CC1 [Example 240, 5-{5-[(dimethylamino)methyl]-2-thienyl}-3-[1-(ethylsulfonyl)-4-piperidinyl]-1H-indole-7-carboxamide trifluoroacetate] | ≤ 10 | ≤ 1.5 |
| CCCNCc1ccc(-c2cc(C(N)=O)c3[nH]cc(C4CCN(S(=O)(=O)CC)CC4)c3c2)s1 [Example 241, 3-[1-(ethylsulfonyl)-4-piperidinyl]-5-{5-[(propylamino)methyl]-2-thienyl}-1H-indole-7-carboxamide trifluoroacetate] | ≤ 10 | ≤ 1.5 |
| CCN(CC)Cc1ccc(-c2cc(C(N)=O)c3[nH]cc(C4CCN(S(=O)(=O)CC)CC4)c3c2)s1 [Example 242, 5-{5-[(diethylamino)methyl]-2-thienyl}-3-[1-(ethylsulfonyl)-4-piperidinyl]-1H-indole-7-carboxamide trifluoroacetate] | ≤ 10 | ≤ 1.5 |
| CCS(=O)(=O)N1CCC(c2c[nH]c3c(C(N)=O)cc(-c4coc(CNCC(C)(C)C)c4)cc23)CC1 [Example 244, 5-(5-{[(2,2-dimethylpropyl)amino]methyl}-3-furanyl)-3-[1-(ethylsulfonyl)-4-piperidinyl]-1H-indole-7-carboxamide trifluoroacetate] | ≤ 10 | ≤ 1.5 |
| CCS(=O)(=O)N1CCC(c2c[nH]c3c(C(N)=O)cc(-c4coc(CNCC(C)C)c4)cc23)CC1 [Example 245, 3-[1-(ethylsulfonyl)-4-piperidinyl]-5-(5-{[(2-methylpropyl)amino]methyl}-3-furanyl)-1H-indole-7-carboxamide trifluoroacetate] | ≤ 10 | ≤ 1.5 |

Now from value to compound:

| IC50 [1] [µM] | IC50 [2] [µM] | Compound |
| --- | --- | --- |
| ≤ 10 | ≤ 1.5 | CCS(=O)(=O)N1CCC(c2c[nH]c3c(C(N)=O)cc(-c4cc(CN5[C@H](C)CC[C@H]5C)cs4)cc23)CC1 [Example 216, 5-(4-{[(2R,5R)-2,5-dimethyl-1-pyrrolidinyl]methyl}-2-thienyl)-3-[1-(ethylsulfonyl)-4-piperidinyl]-1H-indole-7-carboxamide trifluoroacetate] |
| ≤ 10 | ≤ 1.5 | CCS(=O)(=O)N1CCC(c2c[nH]c3c(C(N)=O)cc(-c4csc(CN5CCC[C@@H]5C)c4)cc23)CC1 [Example 217, 3-[1-(ethylsulfonyl)-4-piperidinyl]-5-(5-{[(2S)-2-methyl-1-pyrrolidinyl]methyl}-3-thienyl)-1H-indole-7-carboxamide] |
| ≤ 10 | ≤ 1.5 | CCS(=O)(=O)N1CCC(c2c[nH]c3c(C(N)=O)cc(-c4csc(CN5CCC[C@H]5C)c4)cc23)CC1 [Example 218, 3-[1-(ethylsulfonyl)-4-piperidinyl]-5-(5-{[(2R)-2-methyl-1-pyrrolidinyl]methyl}-1′-3-thienyl)-1H-indole-7-carboxamide] |
| ≤ 10 | ≤ 1.5 | CCC(c1cc(-c2cc(C(N)=O)c3[nH]cc(C4CCN(S(=O)(=O)CC)CC4)c3c2)cs1)N1CCCC1 (stereo not drawn) [Example 219, 3-[1-(ethylsulfonyl)-4-piperidinyl]-5-{5-[1-(1-pyrrolidinyl)propyl]-3-thienyl}-1H-indole-7-carboxamide trifluoroacetate] |
| ≤ 10 | ≤ 1.5 | CC(C)S(=O)(=O)N1CCC(c2c[nH]c3c(C(N)=O)cc(-c4csc(CN(C)C)c4)cc23)CC1 [Example 220, 5-{5-[(dimethylamino)methyl]-3-thienyl}-3-{1-[(1-methylethyl)sulfonyl]-4-piperidinyl}-1H-indole-7-carboxamide trifluoroacetate] |
| ≤ 10 | ≤ 1.5 | CCS(=O)(=O)N1CCC(c2c[nH]c3c(C(N)=O)cc(-c4csc(CCNCC(C)C)c4)cc23)CC1 [Example 222, 3-[1-(ethylsulfonyl)-4-piperidinyl]-5-(5-{2-[(2-methylpropyl)amino]ethyl}-3-thienyl)-1H-indole-7-carboxamide trifluoroacetate] |
| ≤ 10 | ≤ 1.5 | CCS(=O)(=O)N1CCC(c2c[nH]c3c(C(N)=O)cc(-c4csc(CCN(C)C)c4)cc23)CC1 [Example 223, 5-{5-[2-(dimethylamino)ethyl]-3-thienyl}-3-[1-(ethylsulfonyl)-4-piperidinyl]-1H-indole-7-carboxamide trifluoroacetate] |
| ≤ 10 | ≤ 1.5 | CCCNc1ccc(-c2cc(C(N)=O)c3[nH]cc(C4CCN(S(=O)(=O)CC)CC4)c3c2)cn1 [Example 227, 3-[1-(ethylsulfonyl)-4-piperidinyl]-5-[6-(propylamino)-3-pyridinyl]-1H-indole-7-carboxamide trifluoroacetate] |
| ≤ 10 | ≤ 1.5 | CCS(=O)(=O)N1CCC(c2c[nH]c3c(C(N)=O)cc(-c4csc(CNC)c4)cc23)CC1 [Example 230, 3-[1-(ethylsulfonyl)-4-piperidinyl]-5-{5-[(methylamino)methyl]-3-thienyl}-1H-indole-7-carboxamide trifluoroacetate] |
| ≤ 10 | ≤ 1.5 | CCS(=O)(=O)N1CCC(c2c[nH]c3c(C(N)=O)cc(-c4csc(CNC(C)C)c4)cc23)CC1 [Example 231, 3-[1-(ethylsulfonyl)-4-piperidinyl]-5-(5-{[(1-methylethyl)amino]methyl}-3-thienyl)-1H-indole-7-carboxamide trifluoroacetate] |
